Results from patent publication US9816991B2, “Diagnostic peptides for lyme disease” (Biopeptides Corp., priority 2012, dated 2017).

Test system: human IgG+IgM serum antibodies
Experiment: OppA2 peptide ELISA
Format: binding
Settings: for binding of antibodies present in RPR+ serum: 26 RPR+ sera
Procedure: 96-well plates (Nunc Maxisorp) were coated with 10 μg/mL peptide, diluted in 0.1M carbonate-bicarbonate buffer, pH 9.4 (50 μL per well), for 1 hour at room temperature. Blocking buffer 1% bovine serum albumin (BSA) in PBS was added to the wells (250 μL/well) and incubated overnight at 4° C. Wells were washed three times with PBS containing 0.05% Tween 20 (PBS-T) and incubated for 2 hours at room temperature with human samples diluted 1:100 in PBS-1% BSA. Each plate included samples from patients and healthy donors, and all samples were assayed in triplicate. After washing, wells were incubated for 1 hour at RT with a 1:15,000 dilution of HRP-conjugated secondary antibody against human IgG+IgM. Reactions were developed for 30 minutes with 3,3′,5,5′-tetramethylbenzidine (TMB) in the dark at room temperature and the reaction was stopped by the addition of 2N H2SO4. Optical densities were determined at 450 nm and 570 nm wavelengths using a SpectraMax Plus plate reader (Molecular Devices). The cutoff for seropositivity was defined as the mean optical density (OD) of the healthy control samples plus two standard deviations (SD).
OppA2 peptides react specifically with antibodies from Lyme disease patients. The nine peptides were further screened by ELISA using serum or plasma obtained from 104 patients with physician-diagnosed Lyme disease. All patients presented with one or more EM. Control sera was obtained from 45 healthy donors residing in a region of the United States non-endemic for LD, New Mexico. All peptides were incubated with serum in triplicate, and results were validated in two independent experiments. For each peptide, the threshold value for immunoreactivity was defined as the mean optical density (OD) value plus two standard deviations (SD) of results obtained using healthy donor sera. […] OppA2 (191-225) and OppA2 (381-400) were detected by only 2.2% and 6.7%, respectively, of the healthy donor samples.

[1] = Control sera, Healthy blood donors
[2] = Lyme Disease sera, Blood culture negative (localized)
[3] = Lyme Disease sera, Blood culture positive (disseminated)
[4] = Lyme Disease sera, EM positive (1st visit)
[5] = Lyme Disease sera, Elisa Positive

Row | Sequence | reactivity of Lyme disease patient sera compared with sera from healthy donors (in words) | binding of antibodies present in RPR+ serum (in words) | Antibody positivity, % positive [1] | Antibody positivity, N° positive/Total [1] | Antibody positivity, % positive (Control sera, RA) | Antibody positivity, N° positive/Total (Control sera, RA) | Antibody positivity, % positive (Control sera, Syphilis (RPR+)) | Antibody positivity, N° positive/Total (Control sera, Syphilis (RPR+)) | Antibody positivity, % positive [2] | Antibody positivity, N° positive/Total [2] | Antibody positivity, % positive [3] | Antibody positivity, N° positive/Total [3] | Antibody positivity, % positive [4] | Antibody positivity, N° positive/Total [4] | Antibody positivity, % positive (Lyme Disease sera, EM positive (1st visit), listed as OppA2 (286-310)) | Antibody positivity, % positive [5] | Antibody positivity, N° positive/Total [5] | Antibody positivity, % positive (Lyme Disease sera, Wisconsin) | Antibody positivity, N° positive/Total (Lyme Disease sera, Wisconsin) | Antibody positivity, % positive (Lyme Disease sera, EM positive (1st visit), listed as OppA2 (276-300))
1 | APIYIYGNSYLFRND (listed as Borrelia burgdorferi) [OppA2 (495-505)] | comparable to that of sera from healthy donors |  |  |  |  |  |  |  |  |  |  |  |  |  |  |  |  |  |  | 
2 | IYFYSFNTHIKPLDNVKIRKALTLA (listed as Borrelia sp.) [OppA (286-310)] |  | did not bind | 4.4% | 2/45 | 0% | 0/30 | 0% | 0/26 | 0% | 0/13 | 0% | 0/10 | (43.6) % | 44/104 | 43.6% | (22.9) % | 8/35 | (78.3) % | 36/46 | 
3 | SDYYSSAVNAIYFYAFNTHIKPLDN (listed as Borrelia sp.) [OppA (276-300)] |  | did not bind | 4.4% | 2/45 | 0% | 0/30 | 0% | 0/26 | 0% | 0/13 | 0% | 0/10 | (36.6) % | 34/104 |  | (22.9) % | 8/35 | (56.5) % | 26/46 | 36.6%
